The values below come from patent publication US12662491B2 (Redona Therapeutics, Inc., priority 2020, dated 2026).

The target in the test is T1, Zcchc11 enzyme (Homo sapiens, UniProt Q5TAX3).
T1 construct: made in house; host or cells: HEK293 cells (Zcchc11); E. coli Rosetta II (LIN28A)
T1 sequence (Q5TAX3 212-1420): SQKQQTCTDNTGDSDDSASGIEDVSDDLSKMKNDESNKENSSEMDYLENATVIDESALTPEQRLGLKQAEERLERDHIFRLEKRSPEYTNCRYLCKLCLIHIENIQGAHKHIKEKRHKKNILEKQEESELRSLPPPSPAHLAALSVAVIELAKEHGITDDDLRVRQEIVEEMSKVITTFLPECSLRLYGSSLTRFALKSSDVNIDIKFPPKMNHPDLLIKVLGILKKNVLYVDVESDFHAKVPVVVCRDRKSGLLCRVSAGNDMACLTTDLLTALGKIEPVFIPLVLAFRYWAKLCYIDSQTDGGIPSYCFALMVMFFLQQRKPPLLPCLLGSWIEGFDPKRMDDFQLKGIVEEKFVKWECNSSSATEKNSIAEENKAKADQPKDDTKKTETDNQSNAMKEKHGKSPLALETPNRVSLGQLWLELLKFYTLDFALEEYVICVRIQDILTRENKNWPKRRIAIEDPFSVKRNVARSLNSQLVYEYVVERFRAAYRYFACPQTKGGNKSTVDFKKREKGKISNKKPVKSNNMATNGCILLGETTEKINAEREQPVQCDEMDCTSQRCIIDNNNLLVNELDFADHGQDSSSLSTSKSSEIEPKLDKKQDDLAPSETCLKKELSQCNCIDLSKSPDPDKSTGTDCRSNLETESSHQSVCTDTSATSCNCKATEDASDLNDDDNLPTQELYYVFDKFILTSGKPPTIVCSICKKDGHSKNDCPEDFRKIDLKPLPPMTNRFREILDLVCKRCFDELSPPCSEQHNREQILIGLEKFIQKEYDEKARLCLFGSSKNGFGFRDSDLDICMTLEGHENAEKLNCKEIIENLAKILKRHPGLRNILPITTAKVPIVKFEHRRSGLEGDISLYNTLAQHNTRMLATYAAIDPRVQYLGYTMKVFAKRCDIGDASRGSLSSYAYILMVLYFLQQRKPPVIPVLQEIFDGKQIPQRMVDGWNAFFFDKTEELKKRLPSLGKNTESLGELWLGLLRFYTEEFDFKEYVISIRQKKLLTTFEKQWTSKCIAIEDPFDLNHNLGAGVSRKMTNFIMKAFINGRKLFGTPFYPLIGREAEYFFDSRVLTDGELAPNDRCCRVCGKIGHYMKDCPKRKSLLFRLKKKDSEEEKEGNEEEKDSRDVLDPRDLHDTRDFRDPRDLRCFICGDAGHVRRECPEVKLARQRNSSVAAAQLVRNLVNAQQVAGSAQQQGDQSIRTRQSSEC
Put plainly: TUTase assay (Zcchc11 assay, Lin28a-dependent polyuridylation of pre-let-7). Type of test: biochemical. Conditions: Lin28a-dependent Zcchc11 (Z11) TUTase assay; read-out: Potency Lin28a-dep Z11 IC50. The procedure, abridged:
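HEK293-expressed human Zcchc11 (residues 212-1420, 0.2 nM) with 10 nM LIN28A and 2 nM 5′-fluorescein pre-let-7, preincubated 30 min at room temperature, pH 7.3. Started with 5 uM UTP; poly(U) tails quenched by 3′-rhodamine A20 probe, read kinetically. IC50 from early-rate four-parameter fit; no-UTP wells define 0%.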

Structures are written as SMILES.

The term IC50 denotes the concentration at which inhibition is half-maximal.

With `O=C(O)c1cn(-c2ccccc2F)c2cc(N3CCC[C@@H]3COc3ccccn3)c(F)cc2c1=O` [Example 373, (R)-6-fluoro-1-(2-fluorophenyl)-4-oxo-7-(2-((pyridin-2-yloxy)methyl)pyrrolidin-1-yl)-1,4-dihydroquinoline-3-carboxylic acid], the IC50 fell in the range of 1 to 10 µM.

On to `O=C(O)c1cn(-c2ccc(CO)cc2F)c2cc(N3CCC[C@@H]3COc3ccccn3)c(F)cc2c1=O` [Example 374, (R)-6-fluoro-1-(2-fluoro-4-(hydroxymethyl)phenyl)-4-oxo-7-(2-((pyridin-2-yloxy)methyl)pyrrolidin-1-yl)-1,4-dihydroquinoline-3-carboxylic acid], for which the IC50 was at most 1 µM.

`O=C(O)c1cn(-c2cccc(F)c2)c2cc(N3CCC[C@@H]3COc3ccccn3)c(F)cc2c1=O` [Example 375, (R)-6-fluoro-1-(3-fluorophenyl)-4-oxo-7-(2-((pyridin-2-yloxy)methyl)pyrrolidin-1-yl)-1,4-dihydroquinoline-3-carboxylic acid]: the IC50 fell in the range of 1 to 10 µM.

As to `O=C(O)c1cn(-c2cccc(F)c2F)c2cc(N3CCC[C@@H]3COc3ccccn3)c(F)cc2c1=O` [Example 376, (R)-1-(2,3-difluorophenyl)-6-fluoro-4-oxo-7-(2-((pyridin-2-yloxy)methyl)pyrrolidin-1-yl)-1,4-dihydroquinoline-3-carboxylic acid], the IC50 fell in the range of 1 to 10 µM.

As to `O=C(O)c1cn(-c2ccc(Cl)cc2)c2cc(N3CCC[C@@H]3COc3ccccn3)c(F)cc2c1=O` [Example 377, (R)-1-(4-chlorophenyl)-6-fluoro-4-oxo-7-(2-((pyridin-2-yloxy)methyl)pyrrolidin-1-yl)-1,4-dihydroquinoline-3-carboxylic acid], the IC50 is at most 1 µM.

Turning to `O=C(O)c1cn(-c2ccc(F)cc2)c2cc(N3CCC[C@@H]3COc3ccccn3)c(F)cc2c1=O` [Example 378, (R)-6-fluoro-1-(4-fluorophenyl)-4-oxo-7-(2-((pyridin-2-yloxy)methyl)pyrrolidin-1-yl)-1,4-dihydroquinoline-3-carboxylic acid], the IC50 is at most 1 µM.

On to `O=C(O)c1cn(-c2ccc(F)c(F)c2)c2cc(N3CCC[C@@H]3COc3ccccn3)c(F)cc2c1=O` [Example 379, (R)-1-(3,4-difluorophenyl)-6-fluoro-4-oxo-7-(2-((pyridin-2-yloxy)methyl)pyrrolidin-1-yl)-1,4-dihydroquinoline-3-carboxylic acid], for which the 50% inhibitory concentration (IC50) was in the range of 1 to 10 µM.

With `O=C(O)c1cn(-c2ccc(F)cn2)c2cc(N3CCC[C@@H]3COc3ccccn3)c(F)cc2c1=O` [Example 380, (R)-6-fluoro-1-(5-fluoropyridin-2-yl)-4-oxo-7-(2-((pyridin-2-yloxy)methyl)pyrrolidin-1-yl)-1,4-dihydroquinoline-3-carboxylic acid], the IC50 fell in the range of 1 to 10 µM.

Consider `O=C(O)c1cn(-c2ccc(O)cc2F)c2cc(N3CCC[C@@H]3COc3ccccn3)c(F)cc2c1=O` [Example 381, (R)-6-fluoro-1-(2-fluoro-4-hydroxyphenyl)-4-oxo-7-(2-((pyridin-2-yloxy)methyl)pyrrolidin-1-yl)-1,4-dihydroquinoline-3-carboxylic acid], for which the IC50 was in the range of 1 to 10 µM.

With `O=C(O)c1cn(-c2ccc(O)cc2)c2cc(N3CCC[C@@H]3COc3ccccn3)c(F)cc2c1=O` [Example 382, (R)-6-fluoro-1-(4-hydroxyphenyl)-4-oxo-7-(2-((pyridin-2-yloxy)methyl)pyrrolidin-1-yl)-1,4-dihydroquinoline 3-carboxylic acid], the IC50 was at most 1 µM.

Regarding `O=C(O)c1cn(-c2ccc(O)cc2C(F)(F)F)c2cc(N3CCC[C@@H]3COc3ccccn3)c(F)cc2c1=O` [Example 383, (R)-6-fluoro-1-(4-hydroxy-2-(trifluoromethyl)phenyl)-4-oxo-7-(2-((pyridin-2-yloxy)methyl)pyrrolidin-1-yl)-1,4-dihydroquinoline-3-carboxylic acid], the IC50 is 10 to 50 µM.

Take `O=C(O)c1cn(-c2ccc(O)cc2Cl)c2cc(N3CCC[C@@H]3COc3ccccn3)c(F)cc2c1=O` [Example 384, (R)-1-(2-chloro-4-hydroxyphenyl)-6-fluoro-4-oxo-7-(2-((pyridin-2-yloxy)methyl)pyrrolidin-1-yl)-1,4-dihydroquinoline-3-carboxylic acid]: the IC50 lay within 1 to 10 µM.

On to `O=C(O)c1cn(-c2ccc(O)c(F)c2)c2cc(N3CCC[C@@H]3COc3ccccn3)c(F)cc2c1=O` [Example 385, (R)-6-fluoro-1-(3-fluoro-4-hydroxyphenyl)-4-oxo-7-(2-((pyridin-2-yloxy)methyl)pyrrolidin-1-yl)-1,4-dihydroquinoline-3-carboxylic acid], for which the IC50 is at most 1 µM.

Consider `O=C(O)c1cn(-c2cc(F)ccc2Cl)c2cc(N3CCC[C@@H]3COc3ccccn3)c(F)cc2c1=O` [Example 386, (R)-1-(2-chloro-5-fluorophenyl)-6-fluoro-4-oxo-7-(2-((pyridin-2-yloxy)methyl)pyrrolidin-1-yl)-1,4-dihydroquinoline-3-carboxylic acid], for which the IC50 fell in the range of 1 to 10 µM.

On to `O=C(O)c1cn(-c2cc(F)ccc2F)c2cc(N3CCC[C@@H]3COc3ccccn3)c(F)cc2c1=O` [Example 387, (R)-1-(2,5-difluorophenyl)-6-fluoro-4-oxo-7-(2-((pyridin-2-yloxy)methyl)pyrrolidin-1-yl)-1,4-dihydroquinoline-3-carboxylic acid], for which the IC50 is 1 to 10 µM.

Turning to `O=C(O)c1cn(-c2cc(F)cc(F)c2)c2cc(N3CCC[C@@H]3COc3ccccn3)c(F)cc2c1=O` [Example 388, (R)-1-(3,5-difluorophenyl)-6-fluoro-4-oxo-7-(2-((pyridin-2-yloxy)methyl)pyrrolidin-1-yl)-1,4-dihydroquinoline-3-carboxylic acid], the IC50 is 1 to 10 µM.

With `Cc1cc(C)cc(-n2cc(C(=O)O)c(=O)c3cc(F)c(N4CCC[C@@H]4COc4ccccn4)cc32)c1` [Example 389, (R)-1-(3,5-dimethylphenyl)-6-fluoro-4-oxo-7-(2-((pyridin-2-yloxy)methyl)pyrrolidin-1-yl)-1,4-dihydroquinoline-3-carboxylic acid], the IC50 is 1 to 10 µM.

Take `Cc1cccc(F)c1-n1cc(C(=O)O)c(=O)c2cc(F)c(N3CCC[C@@H]3COc3ccccn3)cc21` [Example 390, (R)-6-fluoro-1-(2-fluoro-6-methylphenyl)-4-oxo-7-(2-((pyridin-2-yloxy)methyl)pyrrolidin-1-yl)-1,4-dihydroquinoline-3-carboxylic acid]: the half-maximal inhibitory concentration (IC50) was 1 to 10 µM.

On to `Cc1cccc(-n2cc(C(=O)O)c(=O)c3cc(F)c(N4CCC[C@@H]4COc4ccccn4)cc32)c1` [Example 391, (R)-6-fluoro-4-oxo-7-(2-((pyridin-2-yloxy)methyl)pyrrolidin-1-yl)-1-(m-tolyl)-1,4-dihydroquinoline-3-carboxylic acid], for which the 50% inhibitory concentration (IC50) is at most 1 µM.

As to `Cc1cccc(-n2cc(C(=O)O)c(=O)c3cc(F)c(N4CCC[C@@H]4COc4ccccn4)cc32)c1C` [Example 392, (R)-1-(2,3-dimethylphenyl)-6-fluoro-4-oxo-7-(2-((pyridin-2-yloxy)methyl)pyrrolidin-1-yl)-1,4-dihydroquinoline-3-carboxylic acid], the half-inhibitory concentration (IC50) is at most 1 µM.

Turning to `Cc1ccc(F)cc1-n1cc(C(=O)O)c(=O)c2cc(F)c(N3CCC[C@@H]3COc3ccccn3)cc21` [Example 393, (R)-6-fluoro-1-(5-fluoro-2-methylphenyl)-4-oxo-7-(2-((pyridin-2-yloxy)methyl)pyrrolidin-1-yl)-1,4-dihydroquinoline-3-carboxylic acid], the IC50 lay within 1 to 10 µM.

`Cc1ccc(-n2cc(C(=O)O)c(=O)c3cc(F)c(N4CCC[C@@H]4COc4ccccn4)cc32)c(C)c1` [Example 394, (R)-1-(2,4-dimethylphenyl)-6-fluoro-4-oxo-7-(2-((pyridin-2-yloxy)methyl)pyrrolidin-1-yl)-1,4-dihydroquinoline-3-carboxylic acid]: the IC50 is 1 to 10 µM.
